From ChEMBL document CHEMBL1201862, “PubChem BioAssay data set” (2004) come the findings set out here.

Some test systems named below: NCI-H226; MOLT-4; HCC 2998; MDA-MB-435; CCRF-CEM; Malme-3M; SK-MEL-5; MDA-MB-231; SNB-19; A549; MDA-N; HOP-92; KM12; U-251; RPMI-8226; NCI/ADR-RES; CAKI-1; Hs-578T; 786-0; BT-549.
What all share (assay): inhibition of tumour cell growth, NCI panel, 48 h

SMILES strings stand for the structures. Values joined by “and” are separate entries in the source; they are usually repeats but may differ in a detail not shown here. Identical values can stand only once.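 All cell lines were grown in 96-well plates and treated with compound for 48 hours. Abbreviation: GI50, concentration required for 50% inhibition of growth.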 Active and inactive are the calls of the source. Cut-off read from the data, not from the text of the source: active = GI50 up to about 1.1 µM and inactive = higher.

For `CC(C)(C)CC(C)(C)N/C(N)=N/O`, the GI50 with NCI-H226 is 58.5 µM (inactive); in the experiment with MOLT-4, > 100 µM (inactive); with HCC 2998, > 100 µM (inactive); with MDA-MB-435, > 100 µM (inactive); in the experiment on CCRF-CEM, > 100 µM (inactive); with Malme-3M, > 100 µM (inactive). Further, the GI50 in the experiment on SK-MEL-5 was 51.8 µM (inactive); in the experiment on MDA-MB-231, > 100 µM (inactive); in the experiment on SNB-19 it was > 100 µM (inactive); with A549, > 100 µM (inactive); in the experiment with MDA-N, > 100 µM (inactive); in the experiment on HOP-92, 20.3 µM (inactive). The GI50 in the experiment on KM12 was > 100 µM (inactive); in the experiment on U-251 it was > 100 µM (inactive); in the experiment on RPMI-8226, > 100 µM (inactive); in the experiment with NCI/ADR-RES, 97.3 µM (inactive); in the experiment on CAKI-1, > 100 µM (inactive); in the experiment with Hs-578T, 15 µM (inactive). Also, the GI50 in the experiment with 786-0 is > 100 µM (inactive).
In the case of `O=C(Cc1ccccc1)NN1C(=O)/C(=C\c2cccc(O)c2)S/C1=N\c1ccccc1`, the GI50 was > 100 µM (inactive) in the experiment on NCI-H226; > 100 µM (inactive) in the experiment on HCC 2998; > 100 µM (inactive) with MDA-MB-435; > 100 µM (inactive) in the experiment on SK-MEL-5; 45.8 µM (inactive) with MDA-MB-231; > 100 µM (inactive) in the experiment on SNB-19. In addition, the GI50 with A549, in the experiment on MDA-N, with KM12, in the experiment on U-251, in the experiment with NCI/ADR-RES and with Hs-578T was > 100 µM (inactive) in each case. Moreover, in the experiment with 786-0, the GI50 is > 100 µM (inactive).
Turning to `C=CCOC(=O)N1c2ccc(O)cc2[C@@]23O[C@@]24[C@@H]1C#C/C=C\C#C[C@]3(O)C(=O)C[C@@H]4C`, the GI50 in the experiment on NCI-H226 was 34.4 µM (inactive); in the experiment on MOLT-4 it was 14.8 µM (inactive); in the experiment on HCC 2998 it was > 100 µM (inactive); in the experiment on MDA-MB-435, 27.4 µM (inactive); with CCRF-CEM, 28.4 µM (inactive); in the experiment on Malme-3M, 98.2 µM (inactive). Also, the GI50 in the experiment with SK-MEL-5 was 21.5 µM (inactive); with MDA-MB-231 it was > 100 µM (inactive); in the experiment with SNB-19, > 100 µM (inactive); in the experiment with A549 it was 32 µM (inactive); in the experiment on MDA-N it was > 100 µM (inactive); in the experiment on HOP-92 it was 72.9 µM (inactive). Further, the GI50 is > 100 µM (inactive) in the experiment with KM12; 95.9 µM (inactive) in the experiment with U-251; 25.6 µM (inactive) with RPMI-8226; 65.5 µM (inactive) in the experiment with NCI/ADR-RES; > 100 µM (inactive) in the experiment with CAKI-1; 47.5 µM (inactive) with Hs-578T. Also, the GI50 with 786-0 was 13.9 µM (inactive).
Take `CCCCCCCCCCCCCCCC1(OC)C[N+](C)(C)CCO1` (stereo unspecified): the GI50 with NCI-H226 is 1.08 µM (active); with MOLT-4, 1.12 µM (inactive); in the experiment on HCC 2998, 2.54 µM (inactive); in the experiment on MDA-MB-435, 1.96 µM (inactive); in the experiment with CCRF-CEM, 0.637 µM (active); with Malme-3M, 2.18 µM (inactive). Besides, the GI50 is 1.9 µM (inactive) with SK-MEL-5; 1.75 µM (inactive) in the experiment with MDA-MB-231; 1.6 µM (inactive) in the experiment with SNB-19; 1.7 µM (inactive) in the experiment with A549; 2.05 µM (inactive) in the experiment with MDA-N; 0.586 µM (active) with KM12. The GI50 is 1.6 µM (inactive) in the experiment on U-251; 17.9 µM (inactive) in the experiment with NCI/ADR-RES; 1.4 µM (inactive) in the experiment with CAKI-1; 1.97 µM (inactive) in the experiment with Hs-578T; 0.813 µM (active) with 786-0.
As for `O=C1c2ccccc2-c2c1c(-c1ccccc1)c1n2C2(C(=O)c3ccccc3C2=O)C2C(=O)N(c3ccccc3)C(=O)C12` (stereo unspecified), the GI50 in the experiment with NCI-H226 was 19.3 µM (inactive); in the experiment with MOLT-4, 40.6 µM (inactive); in the experiment on MDA-MB-435, 19.8 µM (inactive); with CCRF-CEM it was 26.1 µM (inactive); with Malme-3M it was 23.9 µM (inactive); with SK-MEL-5, 18.2 µM (inactive). The GI50 was 27.7 µM (inactive) with SNB-19; 85.1 µM (inactive) in the experiment with A549; 24.7 µM (inactive) in the experiment on MDA-N; 23.8 µM (inactive) in the experiment on HOP-92; 19.8 µM (inactive) in the experiment on KM12; 35.9 µM (inactive) with U-251. Further, the GI50 in the experiment on NCI/ADR-RES was 74.6 µM (inactive); with CAKI-1 it was 34.4 µM (inactive); in the experiment with Hs-578T, 17.8 µM (inactive); with 786-0, 23.4 µM (inactive); in the experiment with BT-549 it was 17.5 µM (inactive).
In the case of `Cc1ccc(-n2cnc3c(N/N=C4\SCC(=O)N4c4ccccc4)ncnc32)cc1`, the GI50 with NCI-H226 is 4.02 µM (inactive); with MOLT-4, 1.82 µM (inactive); with MDA-MB-435, 2.02 µM (inactive); in the experiment with CCRF-CEM, 0.437 µM (active); in the experiment with Malme-3M it was 4.39 µM (inactive); in the experiment on SK-MEL-5 it was 3.9 µM (inactive). Besides, the GI50 with MDA-MB-231 is 3.3 µM (inactive); in the experiment on SNB-19 it was 11.7 µM (inactive); in the experiment on A549 it was 11.9 µM (inactive); in the experiment with HOP-92, 2.66 µM (inactive); with KM12, 1.07 µM (active); with U-251, 4.72 µM (inactive). Besides, the GI50 is 0.597 µM (active) in the experiment on RPMI-8226; 8.36 µM (inactive) with NCI/ADR-RES; 6.01 µM (inactive) with CAKI-1; 3.85 µM (inactive) with Hs-578T; 3.15 µM (inactive) with 786-0; 3.85 µM (inactive) in the experiment with BT-549.
With `O=C(CSc1nc2ccccc2c(=O)n1-c1ccccc1)N/N=C1\C(=O)Nc2ccc(F)cc21`, the GI50 in the experiment on NCI-H226 is 2.28 µM (inactive); in the experiment on MOLT-4, 1.61 µM (inactive); in the experiment on HCC 2998, 2.21 µM (inactive); with MDA-MB-435, 3.64 µM (inactive); with CCRF-CEM, 2.35 µM (inactive); in the experiment with Malme-3M, 2.01 µM (inactive). Besides, the GI50 in the experiment with SK-MEL-5 was 3.3 µM (inactive); with MDA-MB-231 it was 2.01 µM (inactive); in the experiment on SNB-19, 4.08 µM (inactive); in the experiment on A549 it was 4 µM (inactive); in the experiment with MDA-N, 3.47 µM (inactive); in the experiment on HOP-92, 1.84 µM (inactive). The GI50 is 3.71 µM (inactive) in the experiment on KM12; 8.93 µM (inactive) with U-251; 2.3 µM (inactive) in the experiment with RPMI-8226; 2.21 µM (inactive) with NCI/ADR-RES; 1.73 µM (inactive) with CAKI-1; 4.18 µM (inactive) with Hs-578T. For the same compound, in the experiment on 786-0, the GI50 was 2.34 µM (inactive).
With `[O-][N+]1=[N+]([O-])[C@@H](c2ccccc2)[C@H]1c1ccccc1`, the GI50 in the experiment with NCI-H226 is 21.3 µM (inactive); in the experiment on MOLT-4, 21.3 µM (inactive); with MDA-MB-435, 18.7 µM (inactive); in the experiment on CCRF-CEM it was 3.3 µM (inactive); in the experiment with Malme-3M it was 17.7 µM (inactive); with SK-MEL-5, 16.7 µM (inactive). Moreover, the GI50 in the experiment with MDA-MB-231 is 20.2 µM (inactive); in the experiment on SNB-19, 18.4 µM (inactive); in the experiment on A549 it was 19.5 µM (inactive); with MDA-N, 16.6 µM (inactive); with HOP-92 it was 15.6 µM (inactive); in the experiment on KM12 it was 22.4 µM (inactive). Moreover, the GI50 was 18.6 µM (inactive) in the experiment on U-251; 4.48 µM (inactive) in the experiment with RPMI-8226; 17.5 µM (inactive) in the experiment with NCI/ADR-RES; 5.83 µM (inactive) in the experiment with CAKI-1; > 100 µM (inactive) in the experiment on Hs-578T; 13.5 µM (inactive) in the experiment with 786-0.
For `OC[C@@H](O)[C@H]1NC[C@@H](O)[C@H]1O`, the GI50 with MOLT-4, in the experiment with HCC 2998, in the experiment with MDA-MB-435, in the experiment with CCRF-CEM, with Malme-3M and in the experiment on SK-MEL-5 was > 100 µM (inactive) in each case. Also, the GI50 in the experiment on SNB-19, in the experiment with A549, in the experiment on MDA-N, with HOP-92, in the experiment on KM12 and with U-251 was > 100 µM (inactive) in each case. In addition, the GI50 with RPMI-8226, in the experiment with CAKI-1, in the experiment with Hs-578T, in the experiment on 786-0 and in the experiment on BT-549 was > 100 µM (inactive) throughout.
On to `O=C(/C=C/c1ccccc1)c1ccccn1`, for which the GI50 in the experiment on NCI-H226 is 16.6 µM (inactive) and 26.7 µM (inactive); in the experiment with MOLT-4, 23.8 µM (inactive); in the experiment with HCC 2998 it was 13.8 µM (inactive) and 19.3 µM (inactive); in the experiment with MDA-MB-435, 26.5 µM (inactive) and 18.9 µM (inactive); in the experiment on CCRF-CEM it was 10 µM (inactive) and 17.1 µM (inactive); with SK-MEL-5, 14 µM (inactive) and 26.1 µM (inactive). Moreover, the GI50 in the experiment on A549 is 19.4 µM (inactive) and 32.6 µM (inactive); with MDA-N it was 16.9 µM (inactive) and 27.2 µM (inactive); with HOP-92, 19.1 µM (inactive); in the experiment with KM12 it was 19.1 µM (inactive) and 14.4 µM (inactive); with U-251, 14.3 µM (inactive) and 17.9 µM (inactive); in the experiment on NCI/ADR-RES it was 22.2 µM (inactive) and 28.4 µM (inactive). In addition, the GI50 with CAKI-1 is 26.2 µM (inactive) and 16.6 µM (inactive); in the experiment with Hs-578T, 22.6 µM (inactive); with 786-0, 12.3 µM (inactive) and 17.2 µM (inactive); with BT-549 it was 24 µM (inactive) and 18.8 µM (inactive).
With `COc1cc2c(cc1OCCCN1CCN(C)CC1)N=C[C@@H]1CCCN1C2=O`, the GI50 in the experiment with NCI-H226 was 1.93 µM (inactive); with MOLT-4, 0.32 µM (active); in the experiment with MDA-MB-435, 1.9 µM (inactive); with CCRF-CEM, 0.485 µM (active); in the experiment with Malme-3M, 2.21 µM (inactive); in the experiment with SK-MEL-5, 2.04 µM (inactive). Also, the GI50 was 2.18 µM (inactive) with MDA-MB-231; 4.06 µM (inactive) in the experiment with SNB-19; 2.37 µM (inactive) in the experiment with A549; 0.75 µM (active) in the experiment on HOP-92; 1.57 µM (inactive) with KM12; 0.935 µM (active) in the experiment with U-251. Also, the GI50 in the experiment on RPMI-8226 was 1.04 µM (active); with NCI/ADR-RES, 3.5 µM (inactive); in the experiment with CAKI-1, 1.25 µM (inactive); in the experiment with Hs-578T, 5.12 µM (inactive); in the experiment with 786-0, 3.4 µM (inactive); in the experiment with BT-549, 1.77 µM (inactive).
